# Source: US7863278B2, “Isethionate salt of a selective CDK4 inhibitor” (Warner-Lambert CompanyLLC, priority 2003, dated 2011)
# Read-outs that look alike come from different tables or passages of the source.
# Columns and labels:
# neointima formation = settings: rats; cited from earlier work
# pKa of conjugate acid = format: physicochemical
# Source text: The free base (Formula 1) is a dibasic compound, which may form both mono- and di-acid addition salts. Its conjugate acid has pKas of 7.3 and 4.1, so comparatively strong acids are necessary for generating the di-salt. Though it may be possible to form a di-isethionate salt of the compound of Formula 1, the mono-isethionate salt appears to be more useful since it requires less counter ion.
# water solubility = format: physicochemical; settings: for solubility at 14 h: thermodynamic from solid
# Source text: The other isethionate salt forms were not evaluated for metastable solubility. […] See Table 5 for a list of HPLC conditions.
# [1] = bioavailability in animal studies; format: in vivo
# Source text: . However, moisture uptake studies reveal that, even at low relative humidity (10% RH), the di-HCl salt absorbs water in an amount greater than about 2% of its mass, making it unsuitable for use in a solid drug product. […]. However, the process for preparing the mono-HCl salt yields partially crystalline drug substance, indicating potential problems with process scale-up. Other salt forms of the compound of Formula 1 are thus needed.
smiles,measurement,setting,value
COc1ccc(CNc2nc(N(CCO)CCO)nc3c2ncn3C(C)C)cc1 [CVT-313],inhibition of neointima formation,neointima formation,greater than 80%
"CC(=O)c1c(C)c2cnc(Nc3ccc(N4CCNCC4)cn3)nc2n(C2CCCC2)c1=O [Formula 1, 6-acetyl-8-cyclopentyl-5-methyl-2-(5-piperazin-1-yl-pyridin-2-ylamino)-8H-pyrido[2,3-d]pyrimidin-7-one]",pKa,pKa of conjugate acid; read-out: pKa of conjugate acid (first),7.3
same,pKa,pKa of conjugate acid; read-out: pKa of conjugate acid (second),4.1
same,Solubility mgA/mL,"water solubility; free base final pH 7.9, 14 h equilibration",0.009 mgA/mL
same,solubility at 14 h,"water solubility; pH 7.9, water, read-out: free base solubility",9.2 µg/mL
same,solubility at 14 h,water solubility; read-out: water solubility,9 µg/mL
same,bioavailability in animal studies,[1],low bioavailability
CC(=O)c1c(C)c2cnc(Nc3ccc(N4CCNCC4)cn3)nc2n(C2CCCC2)c1=O.Cl.Cl [di-HCl salt],water solubility (in words),water solubility,adequate water solubility
